Columns and labels:
HT29 cells = assay: CCK-8 cell viability, HT29; settings: HT29, 24 h, concentrations up to 65 μg/mL
Description: (§1) HT29 cells were grown in McCoy’s 5A medium containing 10% fetal bovine serum, 1% non-essential amino acids, and 1% penicillin-streptomycin, and other conditions were the same as those for Caco-2 cells culture, with the medium being changed every other day. […] They were incubated at 37°C for 24 h to allow cell adhesion. […] After this, the medium was removed and the cells were co-incubated with 10 μL of CCK-8 solution for 4 h. The absorbance values (OD) were measured at 450 nm using a SpectraMax 190 Enzyme Marker. The blank group consisted of wells that were not inoculated with cells, and the control group included wells containing cells but not exposed to the sample solution. Each group was performed in six replicates. Cell viability was calculated using the following formula: Cell activity%=Experimental Group OD value−Blank Group OD value/Control Group OD value−Blank Group OD value×100%

[1] = parameters: method as in Wang et al., 2020; settings: poor lipid and water solubility; ref Wang et al., 2020; cited from earlier work
Caco-2 cells = assay: CCK-8 cell viability, Caco-2; settings: Caco-2, 24 h, concentrations up to 65 μg/mL
Description: as §1

T2DM rats = assay: Blood glucose and body weight in high-fat diet/STZ-induced T2DM rat model; type: in vivo; settings: gavage once daily, weight first decreased then increased
Description: The T2DM rat model was developed by intraperitoneal injection of streptozotocin (STZ). 60 male SD rats were acclimatised and reared for 1 week, then blood glucose and body weight were measured, and the rats were randomly divided into 10 in the normal group and 50 in the modelling group according to blood glucose and body weight. The T2DM rat was fed with high-fat chow for 4 weeks, and at the end of the 4 weeks, the rats were fasted for 12 h without food or water, and were injected with a one-time intraperitoneal injection of 35 mg/kg of 1% STZ solution. The normal group was fed with normal chow, and was given free access to drinking water, and was injected intraperitoneally with the same dose of citrate-sodium citrate buffer as that of the T2DM rat. The blood was collected from the tail vein for fasting blood glucose (FBG) measurement after 72 h. FBG of 16.7 mmol/L was considered successful in T2DM model replication. The T2DM rat model was successfully replicated.
For better drug delivery, we used a rotary evaporator to concentrate the CR-PLR decoction, CR decoction and PLR decotion to crude drug (1 g/mL), respectively. […]

gut flora of rats = assay: 16s rDNA sequencing of gut flora of rats; type: in vivo, rat; settings: T2DM rats
[2] = Genus level, compared to the model group

Structure (SMILES)	relative cell viability (HT29 cells)	BCS classification system class [1]	relative cell viability (Caco-2 cells)	weeks of administration after which body weight increased (T2DM rats) [weeks]	percentage of Lachnospiraceae flora (gut flora of rats; Family level) [%]	percentage of Lactobacillaceae flora (gut flora of rats; Family level) [%]	percentage of Ruminococcaceae flora (gut flora of rats; Family level) [%]	percentage of Ligilactobacillus flora (gut flora of rats; Genus level) [%]	percentage of lactobacilli flora (gut flora of rats; Genus level) [%]	percentage of Akkermansia flora (gut flora of rats; [2])	percentage of Ruminococcus flora (gut flora of rats; [2])	number of independent OTUs (gut flora of rats; gut flora, Venn plot)
O=c1c(-c2ccc(O)cc2)coc2c([C@@H]3O[C@H](CO)[C@@H](O)[C@H](O)[C@H]3O)c(O)ccc12 [PUR, Puerarin]	above 90%	class IV	above 90%	–	–	–	–	–	–	–	–	–
CN(C)C(=N)N=C(N)N [metformin]	–	–	–	4	8.91	8.88	9.47	3.69	4.68	increased	increased	2051

Source: paper PMC12062019, “Therapeutic effects of medicinal and food-based traditional herbal couples on type 2 diabetes mellitus based on pharmacodynamics and pharmacokinetics” (Frontiers in Pharmacology, 2025)
